# Assay results from ChEMBL document CHEMBL5137099, “Discovery of Novel cccDNA Reducers toward the Cure of Hepatitis B Virus Infection” (J Med Chem, 2022).
# Key:
# [1] = Permeability of the compound by PAMPA analysis; format: ADME; settings: read-out: permeability
# [2] = system: Hepatitis B virus; assay: Antiviral activity against HBV infected in human HepDES19 cells assessed as reduction in HBV cccDNA production by measuring inhibition of HBeAg secretion incubated for 5 days by ELISA; format: functional, organism-based; settings: HepDES19, 120 h
# [3] = system: Hepatitis B virus; assay: Antiviral activity against HBV infected in human HepG2 cells assessed as reduction in HBeAg secretion incubated for 5 days by counter screen assay; format: functional, organism-based; settings: HepG2, 120 h
# [4] = Aqueous solubility of the compound; format: physicochemical; settings: buffer
# [5] = Metabolic stability in human microsomes assessed as clearance; format: ADME, Microsome; settings: read-out: CLH
# [6] = Cytotoxicity against human HepDES19 cells assessed as reduction in cell viability measured after 5 days by CCK-8 assay; format: toxicity, cell-based; settings: time 5 day
# [7] = Therapeutic index, ratio of CC50 for cytotoxicity against human HepDES19 cells assessed as reduction in cell viability measured after 5 days by CCK-8 assay to IC50 for antiviral activity against HBV infected in human HepDES19 cells assessed as reduction in HBV cccDNA production by measuring inhibition of HBeAg secretion incubated for 5 days by ELISA; format: toxicity, cell-based; settings: time 5 day, read-out: Ratio CC50/IC50
# [8] = Octanol-aqueous buffer distribution coefficient, log D of the compound at pH 7.4 by CAMDIS assay; format: physicochemical
# [9] = system: Hepatitis B virus; assay: Antiviral activity against HBV infected in human primary hepatocyte cells assessed as reduction in HBV cccDNA production by measuring inhibition of HBsAg secretion measured after 48 hrs by ELISA; format: functional, organism-based
SMILES,Papp [1],IC50 [2],IC50 [3],solubility [4],CLint scaled [5],CC50 at 120 h [6],selectivity ratio at 120 h [7],logD [8],IC50 [9]
CCN(CC)c1ccc2c(=O)c3cccc(Cl)c3oc2c1,0.54 ×10⁻⁶ cm/s,1.65 µM,> 50 µM,< 1 µg/mL,20.3 mL/min/kg,–,–,–,–
O=C(Nc1ccc2c(=O)c3cccc(F)c3oc2c1)c1ccccc1O,–,6.79 µM,> 50 µM,< 1 µg/mL,–,35.1 µM,5,–,–
O=C(Nc1ccc2c(=O)c3ccccc3oc2c1)c1ccccc1F,–,4.03 µM,> 50 µM,< 1 µg/mL,–,> 50 µM,> 13,–,–
O=C(O)C1CCCN(c2ccc3c(=O)c4cccc(Cl)c4oc3c2)C1 (stereo not given),2.43 ×10⁻⁶ cm/s,3.82 µM,> 50 µM,< 474 µg/mL,6.2 mL/min/kg,–,–,–,–
CC1(C)CN(c2ccc3c(=O)c4cccc(Cl)c4oc3c2)CC1C(=O)O (stereo not given),0.98 ×10⁻⁶ cm/s,12.7 µM,> 50 µM,294 µg/mL,–,–,–,–,–
O=c1c2ccc(N3CCCC3)nc2oc2c(F)cccc12,9.1 ×10⁻⁶ cm/s,19.2 µM,> 50 µM,–,20.6 mL/min/kg,–,–,–,–
O=C1Nc2cccc(Cl)c2Oc2cc(N3CCC(C(=O)O)C3)ccc21 (stereo not given),1.64 ×10⁻⁶ cm/s,14.1 µM,> 50 µM,–,–,–,–,–,–
NC1CCN(c2ccc3c(=O)c4cccc(F)c4oc3c2)C1 (stereo not given),0.79 ×10⁻⁶ cm/s,4.85 µM,> 50 µM,23 µg/mL,6.7 mL/min/kg,–,–,–,–
CC(=O)Nc1ccc2c(=O)c3cccc(F)c3oc2c1,8.5 ×10⁻⁶ cm/s,6.21 µM,> 50 µM,< 1 µg/mL,19.7 mL/min/kg,–,–,–,–
CN1CCN(c2ccc3c(=O)c4cccc(F)c4oc3c2)CC1,0.08 ×10⁻⁶ cm/s,16.1 µM,> 50 µM,27 µg/mL,18 mL/min/kg,–,–,–,–
O=C(O)C1CCN(c2cc3oc4c(Cl)cccc4c(=O)c3cc2Cl)C1 (stereo not given),1.59 ×10⁻⁶ cm/s,1.12 µM,> 50 µM,< 1 µg/mL,–,–,–,1.95,–
Clc1cccc2c1Oc1cc(N3CCCC3)ccc1C2,0.36 ×10⁻⁶ cm/s,1.11 µM,> 50 µM,< 1 µg/mL,–,–,–,–,–
CCNc1ccc2c(=O)c3cccc(Cl)c3oc2c1,6.73 ×10⁻⁶ cm/s,0.17 µM,> 50 µM,< 1 µg/mL,15.7 mL/min/kg,–,–,–,–
O=C(Nc1ccc2c(=O)c3cccc(F)c3oc2c1)c1ccccc1Cl,–,2.62 µM,> 50 µM,< 1 µg/mL,–,> 100 µM,> 38,–,–
CCOc1ccc(Cl)c2oc3cc(N4CCC(C(=O)O)C4)ccc3c(=O)c12 (stereo not given),0.7 ×10⁻⁶ cm/s,2.86 µM,> 50 µM,330 µg/mL,–,–,–,0.93,–
O=C(O)C1(C(F)(F)F)CCN(c2ccc3c(=O)c4cccc(Cl)c4oc3c2)C1 (stereo not given),1.78 ×10⁻⁶ cm/s,27 µM,> 50 µM,> 510 µg/mL,–,–,–,1.26,–
Cn1ccnc1C(=O)Nc1ccc2c(=O)c3cccc(F)c3oc2c1,–,0.49 µM,> 50 µM,–,–,> 50 µM,> 102,–,–
COc1ccc(Cl)c2oc3cc(N4CCC(C(=O)O)C4)ccc3c(=O)c12 (stereo not given),0.68 ×10⁻⁶ cm/s,> 50 µM,> 50 µM,> 415 µg/mL,–,–,–,0.47,–
O=c1c2ccc(N3CCCCCC3)cc2oc2c(F)cccc12,1.64 ×10⁻⁶ cm/s,7.56 µM,> 50 µM,73 µg/mL,6.2 mL/min/kg,–,–,–,–
O=C(Nc1ccc2c(=O)c3cccc(F)c3oc2c1)c1ccccc1,0.22 ×10⁻⁶ cm/s,1.89 µM,> 50 µM,< 1 µg/mL,–,> 100 µM,> 53,–,–
O=C(Nc1ccc2c(=O)c3cccc(F)c3oc2c1)c1ccncc1,–,1.14 µM,> 50 µM,< 1 µg/mL,–,> 100 µM,> 134,–,–
Fc1cccc2c1Oc1cc(N3CCCC3)ccc1C2,–,3.99 µM,> 50 µM,< 1 µg/mL,–,–,–,–,–
O=c1c2ccc(N3CCOCC3)cc2oc2c(F)cccc12,1.8 ×10⁻⁶ cm/s,2.1 µM,> 50 µM,< 1 µg/mL,20.8 mL/min/kg,–,–,–,–
O=C1Nc2ccc(N3CCCC3)cc2Oc2c(Cl)cccc21,2.09 ×10⁻⁶ cm/s,5.86 µM,> 50 µM,< 1 µg/mL,–,–,–,–,–
O=C(O)CC1CCN(c2ccc3c(=O)c4cccc(Cl)c4oc3c2)C1 (stereo not given),1.55 ×10⁻⁶ cm/s,6.62 µM,> 50 µM,< 465 µg/mL,–,–,–,–,–
O=C(O)C1CCCN1c1ccc2c(=O)c3cccc(Cl)c3oc2c1 (stereo not given),2.79 ×10⁻⁶ cm/s,11.5 µM,> 50 µM,290 µg/mL,6.2 mL/min/kg,–,–,–,–

SMILES,Papp [1],IC50 [2],IC50 [3],solubility [4],CLint scaled [5],CC50 at 120 h [6],selectivity ratio at 120 h [7],logD [8],IC50 [9]
O=C(O)C1CCN(c2ccc3c(=O)c4c(O)ccc(Cl)c4oc3c2)C1 (stereo not given),0.53 ×10⁻⁶ cm/s,1.74 µM,> 50 µM,200 µg/mL,–,–,–,1.71,–
Clc1cccc2c1Oc1cc(N3CCCC3)ccc1C2C1COC1 (stereo not given),0.09 ×10⁻⁶ cm/s,7.33 µM,> 50 µM,–,–,–,–,–,–
O=c1c2ccc(N3CCCCC3)cc2oc2c(Cl)cccc12,0.49 ×10⁻⁶ cm/s,0.98 µM,> 50 µM,< 1 µg/mL,20.2 mL/min/kg,–,–,–,–
O=c1c2ccc(N3CCCC3)cc2oc2c(Cl)cccc12,0.24 ×10⁻⁶ cm/s,0.23 µM,> 50 µM,< 1 µg/mL,18.9 mL/min/kg,–,–,–,–
O=C1CCCN1c1ccc2c(=O)c3cccc(F)c3oc2c1,2.09 ×10⁻⁶ cm/s,0.83 µM,> 50 µM,< 1 µg/mL,22 mL/min/kg,–,–,–,–
CC1c2ccc(N3CCCC3)cc2Oc2c(Cl)cccc21 (stereo not given),0.015 ×10⁻⁶ cm/s,1.5 µM,> 50 µM,< 1 µg/mL,–,–,–,–,–
O=c1c2ccc(N3CCC(O)C3)cc2oc2c(F)cccc12 (stereo not given),1.49 ×10⁻⁶ cm/s,0.43 µM,> 50 µM,< 1 µg/mL,17.5 mL/min/kg,–,–,–,–
O=C(O)C1CCN(c2cc3oc4c(Cl)cccc4c(=O)c3cc2F)C1 (stereo not given),–,1.17 µM,> 50 µM,–,–,–,–,1.39,7.74 µM
O=C(O)[C@H]1CN(c2ccc3c(=O)c4cccc(Cl)c4oc3c2)C[C@@H]1c1ccc(F)cc1,–,7.39 µM,> 50 µM,–,–,–,–,–,–
O=C1Nc2ccc(N3CCC(C(=O)O)C3)cc2Oc2c(Cl)cccc21 (stereo not given),1 ×10⁻⁶ cm/s,> 50 µM,> 50 µM,< 415 µg/mL,–,–,–,–,–
Cc1cc2c(=O)c3cccc(Cl)c3oc2cc1N1CCC(C(=O)O)C1 (stereo not given),1.34 ×10⁻⁶ cm/s,0.75 µM,> 50 µM,< 465 µg/mL,–,–,–,1.5,3 µM
O=C(O)C1CCN(c2cc3oc4c(Cl)cccc4c(=O)c3cn2)C1 (stereo not given),0.96 ×10⁻⁶ cm/s,4.04 µM,> 50 µM,> 395 µg/mL,–,–,–,< -0.5,–
O=c1c2ccc(N3CCCC3)cc2oc2c(F)cccc12,0.95 ×10⁻⁶ cm/s,0.21 µM,> 50 µM,< 1 µg/mL,20.5 mL/min/kg,–,–,–,–
COc1ccccc1C(=O)Nc1ccc2c(=O)c3cccc(F)c3oc2c1,–,84.9 µM,> 50 µM,< 1 µg/mL,–,> 100 µM,> 1,–,–
OC1(C(F)(F)F)c2ccc(N3CCCC3)cc2Oc2c(Cl)cccc21 (stereo not given),6.73 ×10⁻⁶ cm/s,19.2 µM,> 50 µM,< 1 µg/mL,–,–,–,–,–
CC1(C(=O)O)CCN(c2ccc3c(=O)c4cccc(Cl)c4oc3c2)C1 (stereo not given),2.03 ×10⁻⁶ cm/s,1.74 µM,> 50 µM,–,–,–,–,1.73,–
O=C(Nc1ccc2c(=O)c3cccc(F)c3oc2c1)c1ccncc1F,–,2.43 µM,> 50 µM,< 1 µg/mL,–,> 100 µM,> 20.6,–,–
N#Cc1cc2c(=O)c3cccc(Cl)c3oc2cc1N1CCC(C(=O)O)C1 (stereo not given),–,8.23 µM,> 50 µM,> 430 µg/mL,–,–,–,< -0.5,–
O=C(Nc1ccc2c(=O)c3cccc(Cl)c3oc2c1)c1ccccc1[N+](=O)[O-],–,10.9 µM,> 50 µM,< 1 µg/mL,–,> 100 µM,> 9,–,–
N#Cc1ccc(Cl)c2oc3cc(N4CCC(C(=O)O)C4)ccc3c(=O)c12 (stereo not given),0.8 ×10⁻⁶ cm/s,1.1 µM,> 50 µM,> 443 µg/mL,–,–,–,–,12.4 µM
CN(C(=O)c1ccncc1)c1ccc2c(=O)c3cccc(F)c3oc2c1,–,18.3 µM,> 50 µM,< 1 µg/mL,–,> 100 µM,> 5,–,–
Cc1ccc(Cl)c2oc3cc(N4CCC(C(=O)O)C4)ccc3c(=O)c12 (stereo not given),0.59 ×10⁻⁶ cm/s,1.12 µM,> 50 µM,252 µg/mL,–,–,–,1.75,–
O=C(O)C1CCN(c2ccc3c(c2)Oc2c(Cl)cccc2S3(=O)=O)C1 (stereo not given),1.26 ×10⁻⁶ cm/s,> 50 µM,> 50 µM,< 506 µg/mL,–,–,–,–,–
CCNc1ccc2c(=O)c3cccc(F)c3oc2c1,0.36 ×10⁻⁶ cm/s,0.61 µM,> 50 µM,< 1 µg/mL,22.6 mL/min/kg,–,–,–,–
O=C(O)C1CCN(c2ccc3c(=O)c4cccc(Cl)c4oc3n2)C1 (stereo not given),1.55 ×10⁻⁶ cm/s,50 µM,> 50 µM,410 µg/mL,6.2 mL/min/kg,–,–,–,–
O=C(O)c1cc2c(=O)c3cccc(Cl)c3oc2cc1N1CCCC1,8.64 ×10⁻⁶ cm/s,> 100 µM,> 50 µM,30 µg/mL,6.7 mL/min/kg,–,–,–,–
